Test results as given in PMC9954107, “In Vitro and Predictive Computational Toxicology Methods for the Neurotoxic Pesticide Amitraz and Its Metabolites” (Brain Sciences, 2023).

What was measured:
[1] = tested on: human lymphoblastoid (WIL2NS) cell line; set-up: method as in PMID 16125362; settings: from 0.119 to 119 µM, 24, 48, and 72 h; lowest concentration 0.119 µM; cited from earlier work
HepG2 cells [2] = test: Total protein content (PC) cytotoxicity assay; format: cell-based, human; settings: for IC50: Homo sapiens, read-out: IC50 (µM) ± SEM; for decrease in cell viability: 72 h
From the text: (§1) The medium was changed every 5 days. The final pesticide concentrations tested were achieved by adding each pesticide solution to the culture medium with a final MeOH or DMSO concentration ≤ 1% (v/v). Appropriate controls containing the same amounts of solvents were included in each experiment. Absence of mycoplasma was checked routinely using the MycoAlert^TM PLUS Mycoplasma Kit (Lonza, Rockland, ME, USA).
The PC method is based on the increase of absorbance of Coomassie Brilliant Blue dye when binding to proteins. The assay was performed in the same 96-well plates where the MTT test was carried out. First, the plates were washed with PBS and each well received 200 μL of NaOH 0.1 N to dissolve the proteins. […] The plates remained for 30 min at room temperature and the absorbance was measured at 620 nm in an automatic ELISA plate reader (MultiSkanEX, Thermo Scientific, MA, USA).
(§2) For MTT and PC assays, cell viability was expressed as a percentage relative to the control solvent (≤1% MeOH or DMSO). Three independent experiments were conducted for each exposure time and at least in quadruplicate per concentration. The mean inhibition concentration (IC50) values were calculated using SigmaPlot version 11 (Systat Software Inc., GmbH, Germany).

HepG2 cells [3] = test: MTT cytotoxicity assay; format: cell-based; settings: Homo sapiens, read-out: IC50 (µM) ± SEM
Method: as §1, with “Human hepatocarcinoma (HepG2) (ATCC: HB-8065) cells were cultured in DMEM medium supplemented with 10% NBCS, 100 U/mL penicillin, and […] streptomycin. The incubation conditions were pH 7.4, 5% CO2 at 37 °C, and 95% air atmosphere at constant humidity. The medium” for “The medium”
Cytotoxic effects were determined in HepG2 cells by the MTT and total protein content (PC) assays. They have been extensively used in in vitro toxicological studies for measuring cell proliferation and survival. The MTT assay determines the viability of cells by the reduction of yellow soluble tetrazolium salt (MTT), only in the metabolically active cells, via a mitochondrial-dependent reaction to an insoluble purple formazan crystal. The MTT viability assay was performed according to Ruiz et al. (2006). To begin, 2 × 10^4 cell/well were plated in 96-well tissue culture plates. After cells reached 80% confluence, the culture medium was replaced with fresh medium containing serial dilutions of each pesticide (amitraz from […], 2,4-DMF from 93.75 to 1500 µM, and 2,4-DMA from 93.75 to 1500 µM). The pesticides were exposed at 24, 48, and 72 h. During the exposure time, neither the medium nor the pesticides was replenished. After the exposure time, the medium was removed and 200 μL of fresh medium was added to each well. Then we added 50 μL/well of MTT and the plates were returned to the incubator in the darkness. After 3 h of incubation, the MTT solution was removed and 200 μL of DMSO was added, followed by 25 μL Sorensen’s glycine buffer. Plates were gently shaken for 5 min to achieve the complete dissolution. The absorbance was measured at 540 nm using an automatic ELISA plate reader (MultiSkanEX, Thermo Scientific, Waltham, MA, USA).
as §2

[4] = tested on: primary hippocampal cells; settings: MTT, 24 h, cited from earlier work
[5] = PC, HepG2, 24 h, mean ± SEM (n = 3)
[6] = PC, HepG2, 48 h, mean ± SEM (n = 3)
[7] = PC, HepG2, 72 h, mean ± SEM (n = 3)

| SMILES | cytotoxicity (cell viability) [1] | IC50 (HepG2 cells [2]; [5]) | IC50 (HepG2 cells [2]; [6]) | IC50 (HepG2 cells [2]; [7]) | reduction of cell viability (HepG2 cells [2]; PC, HepG2, from 187.5 μM, three times of exposure) | IC50 (HepG2 cells [3]; HepG2, 24 h) | IC50 (HepG2 cells [3]; HepG2, 48 h) | IC50 (HepG2 cells [3]; HepG2, 72 h) | metabolic activity ([4]; 100 µM) | cytotoxic effect (cell viability) ([4]; from 60 to 120 µM, effect up to 100 µM) | IC50 (HepG2 cells [2]; HepG2, 24 h) | IC50 (HepG2 cells [2]; HepG2, 48 h) | IC50 (HepG2 cells [2]; HepG2, 72 h) | decrease in cell viability (HepG2 cells [2]; PC, HepG2, 1250 µM) | decrease in cell viability (HepG2 cells [2]; PC, HepG2, 1500 µM) | cell viability decreased to (HepG2 cells [2]; PC, HepG2, 1500 µM, 24 h) |
| --- | --- | --- | --- | --- | --- | --- | --- | --- | --- | --- | --- | --- | --- | --- | --- | --- |
| Cc1ccc(/N=C/N(C)/C=N/c2ccc(C)cc2C)c(C)c1 [Amitraz, N,N’-[(methylimino)dimethylidyne]di-2,4-xylidine] | significant decrease in cell viability for all concentrations tested, except for the lowest concentration assayed | 260 ± 13.3 µM | 213 ± 37.5 µM | 175 ± 2.9 µM | 24–100% | 196 ± 10.1 µM | 176 ± 5 µM | 157 ± 10.1 µM | decrease in metabolic activity | decreased the cell viability in a concentration-dependent manner |  |  |  |  |  |  |
| Cc1ccc(NC=O)c(C)c1 [2,4-DMF, N-(2,4-dimethylphenyl) formamide] |  |  |  |  |  | > 1500 µM | > 1500 µM | > 1500 µM |  |  | > 1500 µM | > 1500 µM | > 1500 µM | 27% | 32% |  |
| Cc1ccc(N)c(C)c1 [2,4-DMA, 2,4-dimethylaniline] |  | > 1500 µM | > 1500 µM | > 1500 µM |  | > 1500 µM | > 1500 µM | > 1500 µM |  |  |  |  |  |  |  | 53% |
